The text below walks through data of ChEMBL document CHEMBL1201862, “PubChem BioAssay data set” (2004).

SMILES strings stand for the structures. Activity calls are given as the source filed them.

Broadly, the EC50 is the concentration that produces a half-maximal response. Broadly, the CC50 is the concentration at which the toxic effect on the cells reaches its halfway point. One may read the AC50 as the midpoint of the concentration-response curve, whichever way the signal moves. In general, IC50 refers to the concentration that gives 50% inhibition.

Assay [1] concerns the target T1, Heat shock factor protein 1 (Mus musculus, UniProt P38532).
T1 sequence (P38532 whole entry): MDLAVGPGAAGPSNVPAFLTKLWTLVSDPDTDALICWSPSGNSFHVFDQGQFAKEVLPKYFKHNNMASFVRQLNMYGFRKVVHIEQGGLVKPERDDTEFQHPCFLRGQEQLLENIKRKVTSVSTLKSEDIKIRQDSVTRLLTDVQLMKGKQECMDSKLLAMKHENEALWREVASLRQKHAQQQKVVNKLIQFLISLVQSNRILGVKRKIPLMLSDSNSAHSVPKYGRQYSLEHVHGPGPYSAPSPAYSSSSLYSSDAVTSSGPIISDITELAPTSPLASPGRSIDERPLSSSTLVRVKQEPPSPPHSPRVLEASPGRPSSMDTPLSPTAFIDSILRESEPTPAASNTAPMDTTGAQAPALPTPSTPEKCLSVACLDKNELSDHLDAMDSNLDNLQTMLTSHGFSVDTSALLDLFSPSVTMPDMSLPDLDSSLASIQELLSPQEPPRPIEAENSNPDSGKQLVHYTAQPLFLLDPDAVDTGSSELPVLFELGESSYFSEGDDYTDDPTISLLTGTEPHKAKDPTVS
As to the kind of experiment: inhibition of MG132-induced HSE-luciferase signal, confirmation, cell-based, NIH3T3, luminescence, dose retest (AID 2382).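 Also: NIH3T3 fibroblasts with HSF1-driven luciferase reporter stressed by proteasome inhibitor MG132; luminescence from HSF1-driven luciferase expression after 8 hours of MG132 stress.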 The format is functional.

Assay [2] can be described thus: HEp-2 cell cytotoxicity, dose response, cytotoxicity control for RSV inhibitor project, HTS (AID 2410). In kind it is functional. Particulars: human respiratory syncytial virus.
Assay [3] deals with Streptococcus sp. 'group A'. As to the kind of experiment: growth inhibition of control SK(-) GAS strain, dose response, counter-screen for streptokinase expression inhibitor project, luminescence, kanamycin, BacTiterGlo, confirmation (AID 1900). The format is functional, organism-based. On the technique in general: The purpose of a counterscreen is to sort out artefacts and off-target activity.

In assay [4] the test system is Escherichia coli. Description: microbe, parasite or virus in culture.
The test system of assay [5] is Streptococcus. As to the kind of experiment: Group A Streptococcus viability loss, dose response, counter-screen for streptokinase expression inhibitor project, luminescence, BacTiterGlo (AID 1915).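 Also: potency for reduction of bacterial viability or growth.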 In kind it is functional, organism-based.
In assay [6] the target is T2, Ubiquitin-conjugating enzyme E2 N (Homo sapiens, UniProt P61088).
T2 sequence (P61088 whole entry): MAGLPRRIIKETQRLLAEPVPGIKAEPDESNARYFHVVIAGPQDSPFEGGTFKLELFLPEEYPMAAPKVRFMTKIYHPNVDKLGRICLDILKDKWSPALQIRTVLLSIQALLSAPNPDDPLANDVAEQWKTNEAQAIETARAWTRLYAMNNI
In kind it is functional.

Assay [7] addresses T3, Bcl-2-related protein A1 (Mus musculus, UniProt Q07440).
T3 sequence (Q07440 whole entry): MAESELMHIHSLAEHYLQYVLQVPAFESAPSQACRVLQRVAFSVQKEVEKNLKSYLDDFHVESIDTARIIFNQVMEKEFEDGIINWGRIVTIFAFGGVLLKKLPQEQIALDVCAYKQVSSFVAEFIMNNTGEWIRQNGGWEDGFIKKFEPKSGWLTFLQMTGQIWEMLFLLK
The format is functional.

The target in assay [8] is T4, Apoptotic protease-activating factor 1 (Homo sapiens, UniProt O14727).
T4 sequence (O14727 whole entry): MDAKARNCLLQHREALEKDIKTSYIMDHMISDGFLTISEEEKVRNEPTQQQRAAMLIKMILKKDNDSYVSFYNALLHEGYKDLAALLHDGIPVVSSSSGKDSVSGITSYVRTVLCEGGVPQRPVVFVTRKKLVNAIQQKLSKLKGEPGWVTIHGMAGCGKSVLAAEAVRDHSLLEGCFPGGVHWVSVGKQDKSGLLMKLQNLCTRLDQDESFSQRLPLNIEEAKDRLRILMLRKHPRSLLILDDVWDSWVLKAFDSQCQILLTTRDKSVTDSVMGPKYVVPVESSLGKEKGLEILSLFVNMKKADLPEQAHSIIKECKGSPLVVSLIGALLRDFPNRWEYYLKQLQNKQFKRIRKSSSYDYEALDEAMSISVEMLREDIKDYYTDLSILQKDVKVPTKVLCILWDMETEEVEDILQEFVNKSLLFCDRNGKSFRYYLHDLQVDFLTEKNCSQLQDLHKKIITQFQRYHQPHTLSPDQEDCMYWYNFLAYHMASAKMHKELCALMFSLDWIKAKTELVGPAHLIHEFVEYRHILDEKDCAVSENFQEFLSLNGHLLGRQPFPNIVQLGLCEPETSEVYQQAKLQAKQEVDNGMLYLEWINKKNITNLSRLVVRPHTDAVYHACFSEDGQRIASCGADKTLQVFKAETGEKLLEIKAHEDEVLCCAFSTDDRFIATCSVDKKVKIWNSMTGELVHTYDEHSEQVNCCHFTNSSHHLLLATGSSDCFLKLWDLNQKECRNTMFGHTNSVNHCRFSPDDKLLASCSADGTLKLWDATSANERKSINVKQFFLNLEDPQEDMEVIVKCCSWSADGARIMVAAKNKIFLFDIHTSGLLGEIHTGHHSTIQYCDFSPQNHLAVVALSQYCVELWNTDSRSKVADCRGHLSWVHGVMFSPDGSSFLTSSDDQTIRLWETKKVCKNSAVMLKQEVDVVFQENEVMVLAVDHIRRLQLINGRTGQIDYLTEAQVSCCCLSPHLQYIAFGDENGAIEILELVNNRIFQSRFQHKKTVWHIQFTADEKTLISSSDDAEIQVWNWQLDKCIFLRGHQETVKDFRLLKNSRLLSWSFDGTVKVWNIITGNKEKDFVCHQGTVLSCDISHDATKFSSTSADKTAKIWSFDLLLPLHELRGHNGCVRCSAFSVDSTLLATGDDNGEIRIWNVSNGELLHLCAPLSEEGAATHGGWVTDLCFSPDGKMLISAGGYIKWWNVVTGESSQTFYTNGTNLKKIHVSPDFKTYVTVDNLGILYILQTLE
The format is functional.

Assay [9] has as its target T5, Protein skinhead-1 (Caenorhabditis elegans, UniProt P34707).
T5 sequence (P34707 whole entry): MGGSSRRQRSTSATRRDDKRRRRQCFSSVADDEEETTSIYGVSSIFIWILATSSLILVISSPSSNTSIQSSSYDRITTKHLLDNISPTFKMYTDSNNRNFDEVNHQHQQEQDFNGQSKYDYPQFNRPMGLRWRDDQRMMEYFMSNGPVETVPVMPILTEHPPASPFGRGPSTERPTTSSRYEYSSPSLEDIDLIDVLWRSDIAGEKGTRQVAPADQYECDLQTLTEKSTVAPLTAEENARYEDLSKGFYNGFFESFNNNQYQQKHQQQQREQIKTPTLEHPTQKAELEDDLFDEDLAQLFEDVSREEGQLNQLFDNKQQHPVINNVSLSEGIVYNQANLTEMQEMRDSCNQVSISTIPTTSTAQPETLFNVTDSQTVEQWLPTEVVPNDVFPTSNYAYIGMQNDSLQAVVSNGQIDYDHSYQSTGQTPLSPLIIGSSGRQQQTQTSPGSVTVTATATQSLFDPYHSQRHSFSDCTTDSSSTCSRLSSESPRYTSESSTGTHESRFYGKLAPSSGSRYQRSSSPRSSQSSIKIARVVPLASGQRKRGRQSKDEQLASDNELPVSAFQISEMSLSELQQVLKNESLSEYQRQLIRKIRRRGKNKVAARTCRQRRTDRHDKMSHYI
The format is functional.

Assay [10] addresses T6, DNA repair protein RAD52 homolog (Homo sapiens, UniProt P43351).
T6 sequence (P43351 whole entry): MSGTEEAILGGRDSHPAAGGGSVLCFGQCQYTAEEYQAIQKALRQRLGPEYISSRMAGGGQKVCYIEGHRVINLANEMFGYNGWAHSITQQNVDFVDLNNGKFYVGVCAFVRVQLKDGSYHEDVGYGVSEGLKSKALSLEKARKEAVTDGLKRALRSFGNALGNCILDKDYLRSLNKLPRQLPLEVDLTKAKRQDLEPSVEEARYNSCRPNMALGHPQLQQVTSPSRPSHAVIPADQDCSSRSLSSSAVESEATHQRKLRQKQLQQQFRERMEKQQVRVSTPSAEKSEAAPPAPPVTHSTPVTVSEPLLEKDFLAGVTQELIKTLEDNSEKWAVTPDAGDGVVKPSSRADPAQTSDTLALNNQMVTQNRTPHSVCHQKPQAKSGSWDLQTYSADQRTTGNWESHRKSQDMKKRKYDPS
The format is functional, biochemical.

Assay [11] deals with T2, Ubiquitin-conjugating enzyme E2 N. The format is functional. This is another data set of the same source.
For assay [12], the target named is Glucose-6-phosphate 1-dehydrogenase (Homo sapiens, UniProt P11413). Description: human G6PD enzyme inhibitors, dose response, selectivity assay for P. falciparum G6PD inhibitor project, biochemical, fluorescence (AID 504792). In kind it is functional.
A short description of assay [13]: NIH-3T3 fibroblast cytotoxicity, dose response, cytotoxicity control, cell-based, fluorescence, Alamar Blue, secondary assay (AID 2327).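 Also: NIH-3T3 mouse fibroblasts cultured with fluconazole at 8 µg/mL.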 The format is functional.
Assay [14] can be described thus: C. albicans growth with fluconazole, confirmation, fluorescence, retest (AID 2467). The format is functional, cell-based.
The target in assay [15] is Mu-type opioid receptor (Homo sapiens, UniProt P35372). Description: Counterscreen for agonists of heterodimerization of the mu 1 (OPRM1) and delta 1 (OPRD1) opioid receptors: Luminescence-based cell-based high throughput dose response assay to identify agonists of OPRM1 homodimerization. In kind it is functional.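 Also: U2OS cells expressing OPRM1 and beta-arrestin as split beta-galactosidase partners.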
Assay [16] addresses Delta-type opioid receptor (Homo sapiens, UniProt P41143). As to the kind of experiment: Counterscreen for agonists of heterodimerization of the mu 1 (OPRM1) and delta 1 (OPRD1) opioid receptors: Luminescence-based cell-based high throughput dose response assay to identify agonists of OPRD1 homodimerization. [Related pubchem assays (depositor defined):AID504326, AID504355, AID504692, AID504904, AID504905]. The format is functional.

The target of assay [17] is 5-hydroxytryptamine receptor 5A (Homo sapiens, UniProt P47898). As to the kind of experiment: Counterscreen for agonists of OPRM1-OPRD1 heterodimerization: luminescence-based cell-based high throughput dose response assay to identify agonists of 5-hydroxytryptamine (serotonin) 5A receptor (HTR5A). [Related pubchem assays (depositor defined):AID504326, AID504355, AID504692, AID504904, AID504905]. The format is functional.

Assay [18] has as its target Cysteine protease ATG4B (Homo sapiens, UniProt Q9Y4P1). The format is functional.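 Also: Fluorescence-based dose-response confirmation assay measuring inhibition of ATG4B activity.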
For assay [19], the target named is Phospholipase A2 (Homo sapiens, UniProt P04054). In kind it is functional.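 Also: confirmatory dose-response counterscreen on phospholipase A2, testing hits that came from an ultra-high-throughput screen for ATG4B inhibitors.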
For assay [20], the system named is Candida albicans. Description: growth inhibition of resistant C. albicans, dose response, CaCi-8 strain, fluconazole, dry powder, set 4 (AID 488950). The format is functional, organism-based.

Chain of Delta-type opioid receptor (P41143 whole entry): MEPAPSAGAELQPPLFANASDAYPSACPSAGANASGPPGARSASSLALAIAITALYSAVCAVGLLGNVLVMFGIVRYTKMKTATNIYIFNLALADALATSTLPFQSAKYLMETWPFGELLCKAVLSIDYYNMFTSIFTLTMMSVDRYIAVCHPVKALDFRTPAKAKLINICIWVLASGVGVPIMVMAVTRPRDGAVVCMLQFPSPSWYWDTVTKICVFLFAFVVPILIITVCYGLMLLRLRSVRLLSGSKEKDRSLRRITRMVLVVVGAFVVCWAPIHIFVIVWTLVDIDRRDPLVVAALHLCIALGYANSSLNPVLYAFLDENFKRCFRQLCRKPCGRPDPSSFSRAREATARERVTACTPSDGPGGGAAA
Chain of 5-hydroxytryptamine receptor 5A (P47898 whole entry): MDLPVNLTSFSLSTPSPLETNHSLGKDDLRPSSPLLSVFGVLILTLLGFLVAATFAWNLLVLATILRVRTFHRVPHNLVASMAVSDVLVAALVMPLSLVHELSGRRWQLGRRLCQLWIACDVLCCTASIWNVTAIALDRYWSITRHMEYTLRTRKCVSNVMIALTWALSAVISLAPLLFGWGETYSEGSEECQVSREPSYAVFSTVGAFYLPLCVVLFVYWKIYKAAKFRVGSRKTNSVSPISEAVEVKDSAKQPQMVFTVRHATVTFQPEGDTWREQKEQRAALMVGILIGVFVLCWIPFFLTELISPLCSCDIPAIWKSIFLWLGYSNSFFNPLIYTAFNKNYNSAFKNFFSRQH
Chain of Phospholipase A2 (P04054 whole entry): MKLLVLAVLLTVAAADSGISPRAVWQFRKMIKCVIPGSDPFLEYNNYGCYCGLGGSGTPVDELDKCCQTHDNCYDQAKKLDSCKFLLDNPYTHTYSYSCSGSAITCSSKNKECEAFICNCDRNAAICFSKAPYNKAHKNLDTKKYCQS
Chain of Mu-type opioid receptor (P35372 whole entry): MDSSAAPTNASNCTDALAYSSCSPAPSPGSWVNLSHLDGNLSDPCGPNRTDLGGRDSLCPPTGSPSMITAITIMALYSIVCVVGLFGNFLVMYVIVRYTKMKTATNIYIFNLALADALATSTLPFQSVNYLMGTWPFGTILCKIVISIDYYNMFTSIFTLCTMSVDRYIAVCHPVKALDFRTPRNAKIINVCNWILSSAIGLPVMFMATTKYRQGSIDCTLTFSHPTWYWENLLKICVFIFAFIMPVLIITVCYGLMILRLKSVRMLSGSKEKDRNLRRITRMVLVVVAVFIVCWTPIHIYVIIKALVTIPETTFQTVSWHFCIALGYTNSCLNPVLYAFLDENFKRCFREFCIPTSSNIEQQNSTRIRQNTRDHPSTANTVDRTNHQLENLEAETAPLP
Chain of Cysteine protease ATG4B (Q9Y4P1 whole entry): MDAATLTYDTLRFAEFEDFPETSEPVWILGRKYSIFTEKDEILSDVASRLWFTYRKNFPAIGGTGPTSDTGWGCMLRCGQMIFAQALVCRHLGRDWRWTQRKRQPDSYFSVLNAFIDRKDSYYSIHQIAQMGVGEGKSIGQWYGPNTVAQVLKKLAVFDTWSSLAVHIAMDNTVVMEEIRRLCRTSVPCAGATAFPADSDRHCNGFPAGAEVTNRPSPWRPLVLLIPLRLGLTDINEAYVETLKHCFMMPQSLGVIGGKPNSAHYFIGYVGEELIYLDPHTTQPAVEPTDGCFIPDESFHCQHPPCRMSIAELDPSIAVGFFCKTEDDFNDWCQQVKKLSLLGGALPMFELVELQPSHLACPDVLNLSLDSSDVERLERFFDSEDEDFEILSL
Chain of Glucose-6-phosphate 1-dehydrogenase (P11413 whole entry): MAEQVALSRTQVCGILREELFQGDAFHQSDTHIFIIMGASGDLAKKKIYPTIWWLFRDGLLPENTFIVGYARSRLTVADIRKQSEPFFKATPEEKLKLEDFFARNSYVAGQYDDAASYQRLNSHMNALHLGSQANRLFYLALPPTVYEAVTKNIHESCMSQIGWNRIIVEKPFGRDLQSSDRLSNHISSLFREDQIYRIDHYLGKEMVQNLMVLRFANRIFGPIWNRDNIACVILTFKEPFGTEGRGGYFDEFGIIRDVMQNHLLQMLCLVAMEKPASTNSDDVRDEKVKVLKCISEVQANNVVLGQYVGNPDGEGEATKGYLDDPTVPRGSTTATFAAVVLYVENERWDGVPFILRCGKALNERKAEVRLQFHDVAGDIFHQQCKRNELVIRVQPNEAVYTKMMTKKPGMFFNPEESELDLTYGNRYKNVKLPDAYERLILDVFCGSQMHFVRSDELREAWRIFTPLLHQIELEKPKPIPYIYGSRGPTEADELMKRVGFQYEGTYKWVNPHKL

On to `COc1c(N2CCN(C(S)=NC3CC4CCC3C4)C(C)C2)c(F)cc2c(=O)c(C(=O)O)cn(C3CC3)c12` (stereo unspecified), for which the figures for the concentration for a half-maximal effect (EC50) in assay [1], in assay [3] and in assay [5] were 17 µM (active), 5.85 µM (active) and 3.77 µM (active), respectively. The CC50 in assay [2] was 9.91 µM (active). Besides, the AC50 in assay [4] was 2.64 µM (active).

As to `Cc1ccc2nc(-c3ccc(NC(S)=NC4CC(C)(C)NC(C)(C)C4)cc3)sc2c1`, the IC50 in assay [6] is > 20 µM (inactive); in assay [7], > 20 µM (inactive); in [8], 43.6 µM (active); in assay [9], 35.1 µM (active); in assay [11], 16.8 µM (active); in [12] it was > 80 µM (inactive). Also, the AC50 in assay [10] is 4.95 µM (active). Besides, the EC50 in [13] was > 150 µM (inactive); in assay [14], > 38 µM (not active).

As to `COc1ccccc1CN1CCN(C(CC(C)C)c2nnnn2Cc2cccs2)CC1` (stereo unspecified), the EC50 in [15], in assay [16] and in assay [17] was > 92.5 µM (inactive) in each case.

On to `O=C(O)CC/C(=C\c1ccc(Cl)c([N+](=O)[O-])c1)c1nc2ccccc2s1`, for which the IC50 in assay [18] was 14.3 µM (active); in assay [19] it was 12.3 µM (active).

Consider `CCCCNC(=O)N1CCN(c2ccnc3cc(Cl)ccc23)CC1`, for which, in [20], the AC50 was 23 µM (active).

On to `O=C1OC(c2cccs2)=N/C1=C\c1ccc(-c2cccc(Cl)c2)o1`, for which the figures for the IC50 in [18] and in assay [19] were 14.8 µM (active) and 0.605 µM (active), respectively.

As to `CN(C)C(CNC(=O)c1ccc2ccccc2c1)c1ccco1` (stereo unspecified), the EC50 in assay [15], in assay [16] and in assay [17] was > 92.5 µM (inactive) each time.

Regarding `CCN(CC)S(=O)(=O)c1ccc(=O)n(CC(=O)N2Cc3ccccc3CC2C(N)=O)c1` (stereo unspecified), the AC50 in assay [4] was 116 µM (active).
